The results in this text go back to PubChem BioAssay AID248 (DTP/NCI, 2004).

“And” between values parts separate entries of the source, which are not always exact repeats. Identical values can stand only once. Inconclusive results and toxic doses are left out.

This test deals with L1210 leukemia ip in BDF1 mice, survival T/C. Put plainly: NCI In Vivo Anticancer Drug Screen. Data for tumor model L1210 Leukemia (intraperitoneal) in B6D2F1 (BDF1) mice. To be noted: endpoint: mean survival time, higher = longer survival. A digest of the protocol:
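Tumor cells were implanted, animals were treated, and survival was followed. The result divides the treated measurement by the vehicle-control measurement.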

Where [1] appears, read: dose: 100.0 mg/kg/injection, schedule: Q01DX009 (ip), vehicle: Klucel (hydroxypropylcellulose) (HPC).
Where [2] appears, read: dose: 100.0 mg/kg/injection, schedule: Q04DX003 (ip), vehicle: Klucel (hydroxypropylcellulose) (HPC).
Setting [3] is: dose: 200.0 mg/kg/injection, schedule: Q01DX009 (ip), vehicle: Klucel (hydroxypropylcellulose) (HPC).
Setting [4] is: dose: 200.0 mg/kg/injection, schedule: Q04DX003 (ip), vehicle: Klucel (hydroxypropylcellulose) (HPC).
Setting [5] is: dose: 400.0 mg/kg/injection, schedule: Q01DX009 (ip), vehicle: Klucel (hydroxypropylcellulose) (HPC).
Where [6] appears, read: dose: 400.0 mg/kg/injection, schedule: Q04DX003 (ip), vehicle: Klucel (hydroxypropylcellulose) (HPC).
The mark [7] stands for this setting: dose: 100.0 mg/kg/injection, schedule: Q01DX009 (ip), vehicle: saline with Tween-80.
The mark [8] stands for this setting: dose: 200.0 mg/kg/injection, schedule: Q01DX009 (ip), vehicle: saline with Tween-80.
Setting [9] is: dose: 400.0 mg/kg/injection, schedule: Q01DX009 (ip), vehicle: saline with Tween-80.

Regarding `COc1cc(NS(=O)(=O)c2ccccc2)ccc1C`, the T/C under setting [1] is 92 % of control; the T/C under setting [2] was 97 % of control; the T/C under setting [3] is 91 % of control; the T/C under setting [4] is 90 % of control; the T/C under setting [5] is 91 % of control; the T/C under setting [6] is 87 % of control.
Take `O=C(CC(=O)CC(O)(C(F)(F)F)C(F)(F)F)CC(O)(C(F)(F)F)C(F)(F)F`: the T/C runs as follows: (dose: 2.5 mg/kg/injection, schedule: Q01DX009 (ip), vehicle: saline) 97 % of control; (dose: 5.0 mg/kg/injection, schedule: Q01DX009 (ip), vehicle: saline) 95 % of control.
In the case of `CCOC(OCC)c1ccccc1` (tested in a mixture with another compound), the T/C was 100 % of control under setting [7], 100 % of control under setting [8] and 94 % of control under setting [9].
Turning to `CN(Cc1cnc2nc(N)nc(N)c2n1)c1c(Cl)cc(C(=O)NC(CCC(=O)O)C(=O)O)cc1Br` (stereo unspecified), the T/C is 162 % of control (dose: 12.5 mg/kg/injection, schedule: Q01DX Z (ip), vehicle: saline); 196 % of control (dose: 25.0 mg/kg/injection, schedule: Q01DX Z (ip), vehicle: saline); 241 % of control and 267 % of control (dose: 50.0 mg/kg/injection, schedule: Q01DX Z (ip), vehicle: saline); 101 % of control (dose: 200.0 mg/kg/injection, schedule: Q01DX Z (ip), vehicle: saline).
As to `Cc1ccc(Cl)cc1NC(=O)Nc1ccc(F)c([N+](=O)[O-])c1`, the T/C by setting is: (dose: 12.5 mg/kg/injection, schedule: Q01DX009 (ip), vehicle: saline with Tween-80) 95 % of control and 90 % of control; (dose: 25.0 mg/kg/injection, schedule: Q01DX009 (ip), vehicle: saline with Tween-80) 88 % of control and 92 % of control; (dose: 25.0 mg/kg/injection, schedule: Q04DX003 (ip), vehicle: saline with Tween-80) 90 % of control; (dose: 50.0 mg/kg/injection, schedule: Q01DX009 (ip), vehicle: saline with Tween-80) 92 % of control; (dose: 50.0 mg/kg/injection, schedule: Q04DX003 (ip), vehicle: saline with Tween-80) 87 % of control; (dose: 100.0 mg/kg/injection, schedule: Q04DX002 (ip), vehicle: saline with Tween-80) 96 % of control and 89 % of control. The T/C was 93 % of control and 100 % of control under setting [8]; 101 % of control and 91 % of control (dose: 200.0 mg/kg/injection, schedule: Q04DX002 (ip), vehicle: saline with Tween-80); 93 % of control and 104 % of control under setting [9]; 93 % of control and 94 % of control (dose: 400.0 mg/kg/injection, schedule: Q04DX002 (ip), vehicle: saline with Tween-80).
`CCC(=O)C(CC)c1ccccc1` (stereo unspecified): the T/C by setting is: under setting [7], 95 % of control; (dose: 100.0 mg/kg/injection, schedule: Q04DX003 (ip), vehicle: saline with Tween-80) 102 % of control; under setting [8], 94 % of control; (dose: 200.0 mg/kg/injection, schedule: Q04DX003 (ip), vehicle: saline with Tween-80) 97 % of control; under setting [9], 100 % of control; (dose: 400.0 mg/kg/injection, schedule: Q04DX003 (ip), vehicle: saline with Tween-80) 97 % of control.
For `N=C(N)c1ccc(-c2nc3ccc(C(=N)N)cc3[nH]2)cc1`, the T/C by setting is: (dose: 12.5 mg/kg/injection, schedule: Q04DX003 (ip), vehicle: saline) 100 % of control and 103 % of control; (dose: 25.0 mg/kg/injection, schedule: Q04DX003 (ip), vehicle: saline) 100 % of control and 103 % of control; (dose: 50.0 mg/kg/injection, schedule: Q04DX003 (ip), vehicle: saline) 100 % of control and 103 % of control.
Regarding `c1ccc2c3csccc-3nc2c1`, the T/C is 92 % of control (dose: 12.5 mg/kg/injection, schedule: Q01DX009 (ip), vehicle: saline); 98 % of control (dose: 25.0 mg/kg/injection, schedule: Q01DX009 (ip), vehicle: saline); 94 % of control (dose: 50.0 mg/kg/injection, schedule: Q01DX009 (ip), vehicle: Klucel (hydroxypropylcellulose) (HPC)); 97 % of control (dose: 50.0 mg/kg/injection, schedule: Q01DX009 (ip), vehicle: saline); 92 % of control under setting [1]; 94 % of control and 98 % of control (dose: 100.0 mg/kg/injection, schedule: Q04DX003 (ip), vehicle: acetone). Also, the T/C was 92 % of control under setting [3] and 97 % of control (dose: 200.0 mg/kg/injection, schedule: Q04DX003 (ip), vehicle: acetone).
With `Nc1ncnc(N)c1NC(=O)CCCCc1ccccc1`, the T/C is, setting by setting: (dose: 100.0 mg/kg/injection, schedule: Q04DX003 (ip), vehicle: saline) 100 % of control; (dose: 200.0 mg/kg/injection, schedule: Q04DX003 (ip), vehicle: saline) 92 % of control; (dose: 400.0 mg/kg/injection, schedule: Q04DX003 (ip), vehicle: saline) 100 % of control.
For the molecule `CCOC(=O)c1ccc(NC(=O)Oc2ccccc2C(=O)OCc2ccccc2)cc1`, the T/C reads like this: under setting [1], 98 % of control; under setting [3], 95 % of control; under setting [5], 96 % of control.
As to `CC1(C)N=C(N)N=C(N)N1c1ccc(OCCCc2ccccc2)c([N+](=O)[O-])c1`, the T/C runs as follows: under setting [1], 103 % of control; under setting [3], 103 % of control.
In the case of `N#CC(C#N)=Cc1c(Cl)cccc1Cl`, the T/C (dose: 6.25 mg/kg/injection, schedule: Q01DX001 (ip), vehicle: Klucel (hydroxypropylcellulose) (HPC)) was 96 % of control; the T/C (dose: 6.25 mg/kg/injection, schedule: Q04DX003 (ip), vehicle: Klucel (hydroxypropylcellulose) (HPC)) was 94 % of control; the T/C (dose: 12.5 mg/kg/injection, schedule: Q01DX001 (ip), vehicle: Klucel (hydroxypropylcellulose) (HPC)) is 103 % of control; the T/C (dose: 12.5 mg/kg/injection, schedule: Q04DX003 (ip), vehicle: Klucel (hydroxypropylcellulose) (HPC)) is 114 % of control; the T/C (dose: 25.0 mg/kg/injection, schedule: Q01DX001 (ip), vehicle: Klucel (hydroxypropylcellulose) (HPC)) is 96 % of control and 109 % of control; the T/C (dose: 25.0 mg/kg/injection, schedule: Q04DX003 (ip), vehicle: Klucel (hydroxypropylcellulose) (HPC)) is 97 % of control. For the same molecule, the T/C (dose: 100.0 mg/kg/injection, schedule: Q01DX001 (ip), vehicle: Klucel (hydroxypropylcellulose) (HPC)) was 105 % of control.
For `CCc1cc(C)cc(OC(=O)Nc2ccc(Cl)c(Cl)c2)c1`, the T/C is, setting by setting: under setting [7], 97 % of control; under setting [2], 91 % of control; under setting [8], 92 % of control; under setting [4], 90 % of control; under setting [9], 94 % of control; under setting [6], 91 % of control.
Take `C[Si](C)(C)c1c(F)c(F)c(F)c(F)c1F`: the T/C under setting [7] was 102 % of control, the T/C under setting [8] is 94 % of control and the T/C under setting [9] was 97 % of control.
As to `Cc1ccc(C)c(NC(=O)Nc2cccc(Cl)c2)c1`, the T/C runs as follows: under setting [1], 93 % of control; under setting [2], 92 % of control; under setting [3], 96 % of control; under setting [4], 89 % of control; under setting [5], 91 % of control; under setting [6], 87 % of control.
With `NC(=O)C1(Nc2ccc(-c3ccc(NC4(C(N)=O)CCCC4)cc3)cc2)CCCC1`, the T/C was 95 % of control (dose: 50.0 mg/kg/injection, schedule: Q01DX001 (ip), vehicle: carboxymethylcellulose (CMC)); 90 % of control (dose: 100.0 mg/kg/injection, schedule: Q01DX001 (ip), vehicle: carboxymethylcellulose (CMC)); 93 % of control (dose: 200.0 mg/kg/injection, schedule: Q01DX001 (ip), vehicle: carboxymethylcellulose (CMC)).
Take `CSc1ccc(NC(=O)C(Cl)Cl)cc1`: the T/C was 95 % of control under setting [1]; 97 % of control (dose: 100.0 mg/kg/injection, schedule: Q04DX002 (ip), vehicle: Klucel (hydroxypropylcellulose) (HPC)); 105 % of control under setting [3]; 101 % of control under setting [5]; 93 % of control (dose: 400.0 mg/kg/injection, schedule: Q04DX002 (ip), vehicle: Klucel (hydroxypropylcellulose) (HPC)).
Take `c1ccc(N2CCN(Cc3ccc4ccccc4c3)CC2)cc1`: the T/C was 96 % of control (dose: 100.0 mg/kg/injection, schedule: Q01DX001 (ip), vehicle: saline with Tween-80); 100 % of control (dose: 200.0 mg/kg/injection, schedule: Q01DX001 (ip), vehicle: saline with Tween-80); 91 % of control (dose: 400.0 mg/kg/injection, schedule: Q01DX001 (ip), vehicle: saline with Tween-80).
Take `CCOC(=O)/C(=C\C(C(=O)OCC)C(=O)OCC)CC`: the T/C by setting is: (dose: 100.0 mg/kg/injection, schedule: Q01DX001 (ip), vehicle: saline) 106 % of control; (dose: 200.0 mg/kg/injection, schedule: Q01DX001 (ip), vehicle: saline) 103 % of control; (dose: 400.0 mg/kg/injection, schedule: Q01DX001 (ip), vehicle: saline) 95 % of control.
